# Measurements from patent US20170190726A9, “PRODRUG FOR RELEASE OF CISPLATIN AND CYCLOOXYGENASE INHIBITOR” (priority 2013, published 2017).
# How the values were obtained:
# TNF-α = assay: ELISA of TNF-α in LPS-stimulated RAW 264.7 macrophages; type: cell-based, mouse; details: for LPS-induced TNF-α production: preventive: pretreatment 10 μM 6 h, then LPS 12 h
# Protocol: (§2) RAW 264.7 cells were plated at a concentration of 10,000 cells/mL in 96 plates and allowed to grow overnight. For preventative anti-inflammatory treatment, Platin-A (10 μM), aspirin (10 μM), cisplatin (10 μM) and an equimolar ratio of cisplatin and aspirin (10 μM each) was incubated with the RAW cells for 6 h. Lipopolysaccharide (LPS) (100 ng/mL) was added and the cells were further incubated for 12 h. For therapeutic anti-inflammatory treatment, LPS (100 ng/mL) was added to the RAW cells and incubated for 6 h. Platin-A (10 μM), aspirin (10 μM), cisplatin (10 μM) and an equimolar ratio of cisplatin and aspirin (10 μM each) was then added to the cells and incubated for 12 h. ELISA was performed on the supernatants against the cytokines interleukin (IL)-6, IL-10, and TNF-α. Briefly, antibody coated plates were blocked with 10% FBS in PBS for 1 h at room temperature followed by 3 washes. RAW cell supernatants were incubated on the plates for 2 h at room temperature. This was immediately followed by washings and sequential incubations with the cytokine-biotin conjugate and streptavidin working solution. Finally, the substrate reagent containing 3,3′,5,5′-tetramethylbenzidine (100 μL) was added to each well, incubated for 15 min, the reaction was stopped by adding 50 μL H2SO4 (0.1 M). The absorbance was recorded at 450 nm using a BioTek Synergy HT well plate reader.
# PC3 cells [1] = assay: Apoptosis detection by annexin V/PI assay; type: cell-based, Human; details: 25 μM, 6 h
# Description: High expression of COX-2 is found in various cancers, however, for PCa cell lines as well as tissue, contradictory results exist. We therefore tested anti-proliferative properties of Platin-A on androgen-responsive LNCaP and androgenunresponsive PC3 and DU145 PCa cells that differ in their malignant potentials. […] However, in LNCaP cells, Platin-A activity was better than an equimolar mixture of cisplatin and aspirin. In general, Pt(IV) compounds are less cytotoxic compared to their active Pt(II) form. […] To evaluate whether Platin-A-dependent inhibition of cancer cell proliferation is associated with apoptosis, Alexa Fluor® 488 annexin V/propidium iodide (PI) staining assay was carried out in PC3 cells and the data were analyzed by fluorescence assisted cell sorting. […]
# PC3 cells were seeded at a density of 1×10^6 cells/mL on each well of a six well plate and allowed to grow overnight. […] Cell density was determined and cells were resuspended in 1× annexinVbinding buffer to 1×10^6 cells/mL preparing a sufficient volume to have 100 μL per assay. […] After the incubation period, 400 μL of 1× annexin-binding buffer was added to each sample, samples were gently mixed keeping the samples on ice, and the samples were analyzed on the flow cytometer immediately.
# IL-6 = assay: ELISA of IL-6 in LPS-stimulated RAW 264.7 macrophages; type: cell-based, mouse; details: for LPS-induced IL-6 production: preventive: pretreatment 10 μM 6 h, then LPS 12 h
# Protocol: as §2
# DU145 cells = assay: MTT cytotoxicity assay in DU145 cells; type: cell-based, Human; details: 72 h
# Protocol: (§1) Human prostate cancer cell lines LNCaP, PC3, and DU145 and RAW 264.7 macrophages were procured from the American type culture collection (ATCC). DU145 cells were grown at 37° C. in 5% CO2 in Eagle's minimum essential medium (EMEM) supplemented with 10% fetal bovine serum (FBS) and 1% penicillin/streptomycin. […] Cells were passed every 3 to 4 days and restarted from frozen stocks upon reaching pass number 20. The cytotoxic behaviors of cisplatin, aspirin, cisplatin+aspirin, and Platin-A were evaluated using the MTT assay against PC3, DU145, LNCaP, and RAW 264.7 cells. […] The cells were treated with different constructs at varying concentrations and incubated for 72 h at 37° C. except for RAW 264.7 macrophages. […] The cells were then treated with 20 μL of MTT (5 mg/mL in PBS) for 5 h. […] Each well was performed in triplicate. […] The IC50 values were reported at +95% confidence intervals.
# PC3 cells [2] = assay: MTT cytotoxicity assay in PC3 cells; type: cell-based, Human; details: 72 h
# Protocol: as §1
# LNCaP cells = assay: MTT cytotoxicity assay in LNCaP cells; type: cell-based, Human; details: 72 h
# Protocol: as §1
# [3] = therapeutic: LPS activated macrophages then 10 μM for 12 h
compound,measurement,setting,value
"CC(=O)Oc1ccccc1C(=O)O [Aspirin, Acetylsalicylic acid]",LPS-induced TNF-α production,TNF-α,did not show any preventive action
same,apoptosis induction (annexin V/PI),PC3 cells [1],did not show any changes in healthy PC3 populations
same,LPS-induced IL-6 production,IL-6,did not show any preventive action
"N.N.[Cl][Pt][Cl] [Cisplatin, Cis-diamminedichloroplatinum(II)]",LPS-induced TNF-α production,TNF-α,did not show any preventive action
same,levels of TNF-α,TNF-α; [3],did not show any effect
same,IC50,DU145 cells,5 ± 2 µM
same,IC50,PC3 cells [2],14 ± 4 µM
same,LPS-induced IL-6 production,IL-6,did not show any preventive action
same,levels of IL-6,IL-6; [3],did not show any effect
same,IC50,LNCaP cells,15 ± 1 µM
